In patent EP0148431A1, “Benzimidazoles, their preparation, and medicaments containing these compounds” (Dr. Karl Thomae GmbH, priority 1983, dated 1985):
Where two headings read alike, the source gives them in different places.

Tested on: narkotisierten Katze
Conditions: anaesthetised cats (pentobarbital sodium 40 mg/kg i.p.), mean of at least 3 cats
Procedure: Beispielsweise wurden die Verbindungen • A = 2-(2-Methoxy-4-methylsulfonyl-phenyl)-5-cyano-benzimidazol und • B = 2-(2-Methoxy-4-propargyloxy-phenyl)-5-cyano-benzimidazol auf ihre biologischen Eigenschaften wie folgt untersucht: • Bestimmung der Blutdruckwirkung und der positiv inotropen Wirkung an der narkotisierten Katze
Die Untersuchungen wurden an Katzen durchgeführt, die mit Pentobarbital-Natrium (40 mg/kg i.p.) narkotisiert waren. Die Tiere atmeten spontan. Der arterielle Blutdruck wurde in der Aorta abdominalis mit einem Statham-Druckwandler (P 23 Dc) gemessen. Für die Erfassung der positiv inotropen Wirkung wurde mit einem Kathetertipmanometer (Millar PC-350 A) der Druck in der linken Herzkammer gemessen. Daraus wurde der Kontraktilitätsparameter d^p/dtmax mittels eines Analogdifferenzierers gewonnen. Die zu untersuchenden Substanzen wurden in eine Vena femoralis injiziert. Als Lösungsmittel diente Polydiol 200. Jede Substanz wurde an mindestens 3 Katzen geprüft.

Row | SMILES | Zunahme von dp/dtmax in % (0,2 mg/kg i.v.) [%] | Zunahme von dp/dtmax in % (0,6 mg/kg i.v.) [%] | Zunahme von dp/dtmax in % (2,0 mg/kg i.v.) [%]
1 | COc1cc(S(C)(=O)=O)ccc1-c1nc2ccc(C#N)cc2[nH]1 [A, 2-(2-Methoxy-4-methylsulfonyl-phenyl)-5-cyano-benzimidazol] | 51 | 96 | 79
2 | C#CCOc1ccc(-c2nc3ccc(C#N)cc3[nH]2)c(OC)c1 [B, 2-(2-Methoxy-4-propargyloxy-phenyl)-5-cyano-benzimidazol] | 33 | 48 | 85
